Data from patent publication US8053585B2, “Protecting group for carboxylic acids that can be photolyzed by visible light” (Cornell Research Foundation, Inc., priority 2006, dated 2011).
Values joined by “and” are separate entries in the source; they are usually repeats but may differ in a detail not shown here. Identical values can stand only once. “Also recorded” adds a separate entry of the source.

Columns and labels:
Assay type in all cases: physicochemical
[1] = Laser-flash photolysis (transient spectral measurements); details: for time to release the amino acid on photolysis: aqueous solution, visible region; for time constant of single-exponential absorbance decay at 460 nm: light pulse ≧400 nm, 0.8 mM, HEK buffer pH 7.4, 22° C.
Procedure: […] The energy of the beam was measured using a Molectron (Portland, Oreg.) joule meter. Light of≧400 nm produced by fluorescence from 4.9×10^−4 M Exalite 404 dye (Exciton Inc., Dayton, Ohio) was used to initiate photolysis. The decay of the transient intermediate absorbance was recorded by digitizing the photomultiplier output at rates up to 2 MHz. The transient absorption changes were monitored at a wavelength where there was significant change in the absorption on irradiation of the caged compound (ca. 460 nm). All photolysis rates and quantum yields were measured at room temperature. Nonlinear least-squares fitting of single exponential decays was used to determine the photolysis rate constants.

[2] = UV-vis absorption spectrum of the caged compound; details: for ε390: 390 nm; for ε400: 400 nm
Procedure: The caged compound (1 mM) was rapidly dissolved in the buffer solution (150 mM NaCl, 1 mM CaCl2, 10 mM HEPES; the pH was adjusted to 7.4 using 5 N NaOH), and the solution was immediately transferred to a cuvette (4 mL volume, 10 mm path length) and placed in an absorption spectrometer (OLIS-14C) at 22° C. Whole spectra were recorded between 1 and 240 min after the compound was dissolved (FIGS. 1 and 7).

[3] = Solubility in water or the buffers used; details: physiological conditions
[4] = Hydrolysis in the dark (thermal stability, UV-vis spectra); details: for hydrolysis at room temperature: HEK buffer pH 7.4, protected from light, 2 h; for hydrolysis on storage: buffer pH 7.4, −20° C. in the dark; for stability in water: pH 7.4 and 22° C. / physiological conditions, in the dark
[5] = Quantum yield of photolysis; details: ≧400 nm, 250 μM, extracellular buffer pH 7.4, 22° C.
Procedure: The quantum yield for the caged compound was determined by actinometric methods (Murov, in Dekker, ed., Handbook of Photochemistry, New York, pp. 298-305 (1993), which is hereby incorporated by reference in its entirety). The Oriel (Oriel Instruments, Stratford, Conn.) lamp used for photolysis was equipped with a filter (Schott glass filter GG400; Schott North America, Inc., Elmsford, N.Y.) to eliminate light at wavelengths below 400 nm.
The quantum yield was also determined using the method published by Milburn et al., “Synthesis, Photochemistry, and Biological Activity of a Caged Photolabile Acetylcholine Receptor Ligand,” Biochemistry 28:49-55 (1989), which is hereby incorporated by reference in its entirety. For measuring the quantum yield of DECM-caged glutamate photolysis, 3 mL sample of 4 (Scheme 1) was photolyzed with repetitive light pulses at≧400 nm, and the concentration of 2 (Scheme 1) was determined spectrophotometrically. For measuring the quantum yield of DECM-caged glycine photolysis, 3 mL sample of 4 (Scheme 2) was photolyzed with repetitive light pulses at≧400 nm, and the concentration of 2 (Scheme 2) was determined spectrophotometrically. […]

SMILES | time to release the amino acid on photolysis [1] | time constant of single-exponential absorbance decay at 460 nm [1] | major absorption band maximum [2] | ε390 [2] | ε400 [2] | solubility in water [3] | hydrolysis at room temperature [4] | hydrolysis on storage ([4]; 24 h) | stability in water [4] | quantum yield of photolysis [5] | hydrolysis on storage ([4]; 20 h)
CCN(CC)c1ccc2c(COC(=O)CCC(N)C(=O)O)cc(=O)oc2c1 (centres unmarked) [DECM-caged glutamate, (7-N,N-Diethylaminocoumarin-4-yl)-methyl-glutamate-trifluoroacetate] | ≤ 3 μs | 3 μs | 390 nm | 13651 M⁻¹ cm⁻¹ | 12232 M⁻¹ cm⁻¹ | sufficiently soluble in water or the buffers used; also recorded: water soluble | very little hydrolysis | No measurable hydrolysis | stable in the dark | 0.11±0.008 and 0.11±0.08 | 
CCN(CC)c1ccc2c(COC(=O)CN)cc(=O)oc2c1 [DECM-caged glycine, (7-N,N-Diethylaminocoumarin-4-yl)-methyl-glycine-trifluoroacetate] | ≤ 2.6 μs | 2.6 μs | 390 nm | 13869 M⁻¹ cm⁻¹ | 12427 M⁻¹ cm⁻¹ | water soluble | very little hydrolysis |  | stable | 0.12±0.009 | No measurable hydrolysis
